Experimental findings from publication PMC6136660 (Steroids, 2018) are described below.

In this assay the target is T1, mineralocorticoid receptor (Homo sapiens, UniProt P08235).
T1 sequence (P08235 1-984): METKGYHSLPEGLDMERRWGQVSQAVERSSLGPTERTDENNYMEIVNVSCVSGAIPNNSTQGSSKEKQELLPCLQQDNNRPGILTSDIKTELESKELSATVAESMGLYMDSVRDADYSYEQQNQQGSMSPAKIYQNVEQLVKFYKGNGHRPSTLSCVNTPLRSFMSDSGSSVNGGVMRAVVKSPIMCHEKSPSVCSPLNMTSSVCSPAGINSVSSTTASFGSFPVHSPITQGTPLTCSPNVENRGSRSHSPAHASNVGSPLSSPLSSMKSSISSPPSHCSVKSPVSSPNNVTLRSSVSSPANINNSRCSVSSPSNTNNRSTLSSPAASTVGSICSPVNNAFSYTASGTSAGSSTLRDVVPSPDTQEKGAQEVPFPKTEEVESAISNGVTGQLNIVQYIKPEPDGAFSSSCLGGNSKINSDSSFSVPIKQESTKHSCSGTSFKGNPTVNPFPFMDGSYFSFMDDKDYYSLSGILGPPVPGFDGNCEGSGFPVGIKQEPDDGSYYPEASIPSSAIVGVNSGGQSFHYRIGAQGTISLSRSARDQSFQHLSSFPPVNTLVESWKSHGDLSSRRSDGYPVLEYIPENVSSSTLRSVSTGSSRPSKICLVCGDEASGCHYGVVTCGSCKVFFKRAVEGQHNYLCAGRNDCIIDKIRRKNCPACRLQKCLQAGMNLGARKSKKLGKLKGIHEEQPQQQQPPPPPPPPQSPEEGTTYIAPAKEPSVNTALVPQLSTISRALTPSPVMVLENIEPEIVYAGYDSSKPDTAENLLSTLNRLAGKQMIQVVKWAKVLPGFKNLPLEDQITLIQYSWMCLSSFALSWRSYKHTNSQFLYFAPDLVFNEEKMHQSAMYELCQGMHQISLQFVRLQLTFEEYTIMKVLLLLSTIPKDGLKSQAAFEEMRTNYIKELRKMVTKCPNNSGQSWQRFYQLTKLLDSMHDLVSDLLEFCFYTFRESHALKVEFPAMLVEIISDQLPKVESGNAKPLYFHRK
In words: In vitro reporter assays for steroid hormone receptors, agonist and antagonist modes. It is filed as cell-based. To be noted: in vitro reporter assays (unpublished observations). From the text: In addition to the dissociation of […] (lost) and transrepression (retained) activities, vamorolone has changed additional sub-activities of traditional glucocorticoids. Cortisol and pharmacological glucocorticoids show high affinity for the mineralocorticoid receptor, similar to its physiological ligand, aldosterone. Glucocorticoids and aldosterone act as agonists for the mineralocorticoid receptor, and high circulating levels of pharmacological glucocorticoids result in salt imbalance and water weight gain (Cushingoid appearance) via the reninangiotensin system. […] Vamorolone can not be metabolized by 11β-Hydroxysteroid dehydrogenase (11BHSD) isoforms, and thus should show greater stability in aldosterone-responsive cells (e.g. not inactivated as cortisol and glucocorticoids are).
(In general: Reporter assays use an easily measured gene product as a stand-in for the process of interest.)

Each structure is given as a SMILES string.

In the case of `C[C@@H]1C[C@H]2[C@@H]3CCC4=CC(=O)C=C[C@]4(C)C3=CC[C@]2(C)[C@@]1(O)C(=O)CO` [vamorolone], the “activity at the mineralocorticoid receptor” value is “potent antagonist”.
